Assay [1] addresses T1, CD73 on U138 neuroglioma cells (Homo sapiens, UniProt P21589).
T1 construct: U138 neuroglioma cells, which express CD73 on their surface; endogenous in cells; host or cells: U138 neuroglioma cells (ATCC)
T1 sequence (P21589 27-549): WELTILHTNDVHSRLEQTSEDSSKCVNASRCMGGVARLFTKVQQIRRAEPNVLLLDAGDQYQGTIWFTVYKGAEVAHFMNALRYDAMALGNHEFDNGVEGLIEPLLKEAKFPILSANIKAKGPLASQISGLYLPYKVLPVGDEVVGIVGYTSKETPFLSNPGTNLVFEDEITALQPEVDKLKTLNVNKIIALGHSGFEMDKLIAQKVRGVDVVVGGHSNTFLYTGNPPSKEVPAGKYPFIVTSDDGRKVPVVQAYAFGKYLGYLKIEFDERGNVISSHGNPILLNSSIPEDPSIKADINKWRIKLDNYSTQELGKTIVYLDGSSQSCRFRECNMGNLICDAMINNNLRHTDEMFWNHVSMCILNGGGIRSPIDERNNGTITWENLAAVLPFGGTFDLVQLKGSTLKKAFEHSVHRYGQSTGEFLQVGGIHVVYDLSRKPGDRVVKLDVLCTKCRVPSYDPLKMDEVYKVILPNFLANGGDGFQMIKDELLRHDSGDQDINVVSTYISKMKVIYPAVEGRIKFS
Kind of assay: Inhibition of Ecto-5′-Nucleotidase Activity in U138 Neuroglioma Cells (Assay 2). To be noted: 50 μM CMP, 2 hr at 37° C., malachite green readout, read-out: Assay 2: IC50, inhibition of ecto-5′-nucleotidase activity in U138 neuroglioma cells. The class given is cell-based. The protocol:
Inhibition of Ecto-5′-Nucleotidase Activity in U138 Neuroglioma Cells (Assay 2)
U138 cells were obtained from the American Type Culture Collection (ATCC) (Manassas, Va.), and cultured in complete growth media (DMEM, 10% FBS, 1 mM L-glutamine, 100 U penicillin-streptomycin) at 37° C., 5% CO2. The day before the experiment, cells were seeded at 2,500 cells/well in 100 μL of complete media into 96-well plates. Cells were washed twice with 200 μL of assay buffer (20 mM HEPES, pH 7.4, 137 mM NaCl, 5.4 mM KCl, 1.3 mM CaCl2, 4.2 mM NaHCO3, 1 mg/mL glucose) to remove residual inorganic phosphate. After washing, assays contained serial dilutions of test compounds and 50 μM of cytidine-5′-monophosphate (CMP) in a total volume of 200 μL of assay buffer, with a final DMSO concentration ≤0.1%. After 2 hr at 37° C., 5% CO2, 100 μL of supernatant was removed from the cells and the concentration of inorganic phosphate was determined using malachite green reagent. IC50 values for test compounds were determined from nonlinear regression fits of the data using XLfit (IDBS).

The target in the next assay is T2, human CD73 (Homo sapiens, UniProt P21589).
T2 construct: purchased R&D Systems 5795-EN-010
T2 sequence (P21589 27-549): T1 sequence (P21589 27-549)
In words: Inhibition of 5′-Nucleotidase Activity of CD73 (Assay 1). The class given is biochemical. Conditions: human CD73 4 ng/ml, 50 μM CMP, 20 min at RT, malachite green readout; read-out: Assay 1: IC50, inhibition of 5′-nucleotidase activity of CD73. The protocol:
Inhibition of 5′-Nucleotidase Activity of CD73 (Assay 1)
Compounds of the present invention were tested for the ability to inhibit CD73 enzyme activity. Tested compounds were dissolved in DMSO (50× final concentration), and 3.2 μL of the solutions added to 96-well polystyrene plates. To these wells were added, 100 μL of human CD73 (R&D Systems Cat. No. 5795-EN-010) and 57 μL of cytidine-5′-monophosphate (CMP) solutions in assay buffer (25 mM Tris-HCl, pH 7.4, 0.005% Brij-35) were added to achieve final concentrations in the assay of 4 ng/ml CD73 and 50 μM of CMP. The assay mixture was incubated for 20 min at RT. The reaction was stopped by addition of 40 μL of malachite green reagent which was prepared by mixing together 10 ml 2M H2SO4, 2.5 ml of 15% ammonium molybdate and 0.2 ml of 11% Tween-20. The mixture was agitated vigorously for 10 min at RT, and absorbance at 620 nm was determined on a microplate spectrophotometer. […] The IC50 values were derived using a non-linear 4 parameter logistic model (XLFit software, IDBS) and correspond to the inflection points on dose-response curves.

A value given as a limit tells only on which side of the number the result lay.

As a reminder, the IC50 is the concentration at which inhibition is half-maximal. Take `CCOC(=O)[C@@H](OC[C@H]1O[C@@H](n2cnc3c(NC4CC4)nc(Cl)nc32)[C@H](O)[C@@H]1O)P(=O)(O)O` (single isomer, unassigned) [Example 22a]: the IC50 (in assay [1]; on human CD73) was 100 to 1000 nM in each case.

On to `CCOC(=O)[C@H](OC[C@H]1O[C@@H](n2cnc3c(NC)nc(Cl)nc32)[C@H](O)[C@@H]1O)P(=O)(O)O` (single isomer, unassigned) [Example 23], for which the IC50 (in assay [1]; on human CD73) was below 100 nM each time.

As for `CCOC(=O)[C@@H](OC[C@H]1O[C@@H](n2cnc3c(NC)nc(Cl)nc32)[C@H](O)[C@@H]1O)P(=O)(O)O` (single isomer, unassigned) [Example 23a], the IC50 (in assay [1]; on human CD73) was 100 to 1000 nM throughout.

With `CCOC(=O)[C@H](OC[C@H]1O[C@@H](n2cnc3c(NCc4ccccc4)nc(Cl)nc32)[C@H](O)[C@@H]1O)P(=O)(O)O` (single isomer, unassigned) [Example 24], the 50% inhibitory concentration (IC50) (in assay [1]; on human CD73) was below 100 nM throughout.

As for `CCOC(=O)[C@@H](OC[C@H]1O[C@@H](n2cnc3c(NCc4ccccc4)nc(Cl)nc32)[C@H](O)[C@@H]1O)P(=O)(O)O` (single isomer, unassigned) [Example 24a], the IC50 (in assay [1]; at human CD73) was 100 to 1000 nM throughout.

Regarding `CCOC(=O)[C@H](OC[C@H]1O[C@@H](n2cnc3c(NC4CCCC4)nc(Cl)nc32)[C@H](O)[C@@H]1O)P(=O)(O)O` (single isomer, unassigned) [Example 25], the IC50 (in assay [1]; at human CD73) was below 100 nM each time.

For `CCOC(=O)[C@@H](OC[C@H]1O[C@@H](n2cnc3c(NC4CCCC4)nc(Cl)nc32)[C@H](O)[C@@H]1O)P(=O)(O)O` (single isomer, unassigned) [Example 25a], the IC50 (in assay [1]; at human CD73) was below 100 nM throughout.

In the case of `CCOC(=O)[C@H](OC[C@H]1O[C@@H](n2cnc3c(-n4ccnc4)nc(Cl)nc32)[C@H](O)[C@@H]1O)P(=O)(O)O` (single isomer, unassigned) [Example 26], the IC50 (in assay [1]; at human CD73) was below 100 nM each time.

Take `CCOC(=O)[C@@H](OC[C@H]1O[C@@H](n2cnc3c(-n4ccnc4)nc(Cl)nc32)[C@H](O)[C@@H]1O)P(=O)(O)O` (single isomer, unassigned) [Example 26a]: the half-inhibitory concentration (IC50) (in assay [1]; on human CD73) was 100 to 1000 nM each time.

On to `CCOC(=O)[C@H](OC[C@H]1O[C@@H](n2cnc3c(OCC)nc(Cl)nc32)[C@H](O)[C@@H]1O)P(=O)(O)O` (single isomer, unassigned) [Example 27], for which the values for the concentration for half-maximal inhibition (IC50) (in assay [1]; on human CD73) were 100 to 1000 nM and below 100 nM, respectively.

`CCOC(=O)[C@@H](OC[C@H]1O[C@@H](n2cnc3c(OCC)nc(Cl)nc32)[C@H](O)[C@@H]1O)P(=O)(O)O` (single isomer, unassigned) [Example 27a]: the IC50 (in assay [1]; on human CD73) was 100 to 1000 nM in each case.

As for `CCOC(=O)[C@H](OC[C@H]1O[C@@H](n2cnc3c(C)nc(Cl)nc32)[C@H](O)[C@@H]1O)P(=O)(O)O` (single isomer, unassigned) [Example 28], the concentration for half-maximal inhibition (IC50) (in assay [1]; on human CD73) was below 100 nM throughout.

As for `CCOC(=O)[C@@H](OC[C@H]1O[C@@H](n2cnc3c(C)nc(Cl)nc32)[C@H](O)[C@@H]1O)P(=O)(O)O` (single isomer, unassigned) [Example 28a], the 50% inhibitory concentration (IC50) is above 1000 nM in assay [1] and 100 to 1000 nM on human CD73.

As to `CCOC(=O)[C@H](OC[C@H]1O[C@@H](n2ccc(=O)n(C)c2=O)[C@H](O)[C@@H]1O)P(=O)(O)O` (single isomer, unassigned) [Example 30], the results for the IC50 (in assay [1]; on human CD73) were above 1000 nM and 100 to 1000 nM, respectively.

As for `CCNC(=O)[C@H](OC[C@H]1O[C@@H](n2cnc3c(NCC)nc(Cl)nc32)[C@H](O)[C@@H]1O)P(=O)(O)O` (single isomer, unassigned) [Example 34], the half-inhibitory concentration (IC50) in assay [1] is 100 to 1000 nM; at human CD73, below 100 nM.

Turning to `CCNC(=O)[C@@H](OC[C@H]1O[C@@H](n2cnc3c(NCC)nc(Cl)nc32)[C@H](O)[C@@H]1O)P(=O)(O)O` (single isomer, unassigned) [Example 34a], the IC50 (in assay [1]; at human CD73) was below 100 nM throughout.

As to `CCOC(=O)[C@H](OC[C@H]1O[C@@H](n2cnc3c(NC(=O)c4ccccc4)nc(Cl)nc32)[C@H](O)[C@@H]1O)P(=O)(O)O` (single isomer, unassigned) [Example 36], the IC50 was 100 to 1000 nM in assay [1] and below 100 nM on human CD73.

For the compound `CCOC(=O)[C@@H](OC[C@H]1O[C@@H](n2cnc3c(NC(=O)c4ccccc4)nc(Cl)nc32)[C@H](O)[C@@H]1O)P(=O)(O)O` (single isomer, unassigned) [Example 36a], the results for the IC50 (in assay [1]; on human CD73) were above 1000 nM and 100 to 1000 nM, respectively.

Turning to `CCOC(=O)[C@H](OC[C@@H]1O[C@H](n2cnc3c(N)nc(C)nc32)[C@@H](O)[C@H]1O)P(=O)(O)O` (single isomer, unassigned) [Example 37], the IC50 is 100 to 1000 nM in assay [1] and below 100 nM on human CD73.

Regarding `CCOC(=O)[C@H](OC[C@H]1O[C@@H](n2cnc3c(N)nc(Cc4ccccc4)nc32)[C@H](O)[C@@H]1O)P(=O)(O)O` (single isomer, unassigned) [Example 39], the figures for the IC50 (in assay [1]; at human CD73) were 100 to 1000 nM and below 100 nM, respectively.

In the case of `CCOC(=O)[C@@H](OC[C@H]1O[C@@H](n2cnc3c(N)nc(Cc4ccccc4)nc32)[C@H](O)[C@@H]1O)P(=O)(O)O` (single isomer, unassigned) [Example 39a], the half-inhibitory concentration (IC50) (in assay [1]; at human CD73) was above 1000 nM in each case.

As to `CCOC(=O)[C@H](OC[C@H]1O[C@@H](n2cnc3c(N)nc(-c4ccccc4)nc32)[C@H](O)[C@@H]1O)P(=O)(O)O` (single isomer, unassigned) [Example 40], the half-maximal inhibitory concentration (IC50) was 100 to 1000 nM in assay [1] and below 100 nM on human CD73.

Take `CCOC(=O)[C@H](OC[C@H]1O[C@@H](n2cnc3c(N)nc(-c4cc(F)cc(F)c4)nc32)[C@H](O)[C@@H]1O)P(=O)(O)O` (single isomer, unassigned) [Example 41]: the 50% inhibitory concentration (IC50) in assay [1] is above 1000 nM; at human CD73 it was 100 to 1000 nM.

With `CCOC(=O)[C@H](OC[C@H]1O[C@@H](n2cnc3c(N)nc(C(F)(F)F)nc32)[C@H](O)[C@@H]1O)P(=O)(O)O` (single isomer, unassigned) [Example 42], the concentration for half-maximal inhibition (IC50) in assay [1] was 100 to 1000 nM; at human CD73, below 100 nM.

As to `CCOC(=O)[C@H](OC[C@H]1O[C@@H](n2cnc3c(N)nc(SCC)nc32)[C@H](O)[C@@H]1O)P(=O)(O)O` (single isomer, unassigned) [Example 44], the IC50 (in assay [1]; on human CD73) was above 1000 nM throughout.

`CCOC(=O)[C@H](OC[C@H]1O[C@@H](n2cnc3c(N)nc(C#N)nc32)[C@H](O)[C@@H]1O)P(=O)(O)O` (single isomer, unassigned) [Example 45]: the IC50 (in assay [1]; at human CD73) was below 100 nM throughout.

As for `CCOC(=O)[C@@H](OC[C@H]1O[C@@H](n2cnc3c(N)nc(C#N)nc32)[C@H](O)[C@@H]1O)P(=O)(O)O` (single isomer, unassigned) [Example 45a], the 50% inhibitory concentration (IC50) (in assay [1]; at human CD73) was 100 to 1000 nM throughout.

`CCOC(=O)[C@H](OC[C@H]1O[C@@H](n2cnc3c(N)nc(CC(C)C)nc32)[C@H](O)[C@@H]1O)P(=O)(O)O` (single isomer, unassigned) [Example 46]: the IC50 (in assay [1]; on human CD73) was 100 to 1000 nM in each case.

These data come from US10654884B2 (Vitae Pharmaceuticals, Inc., priority 2014, dated 2020).
